Oligonucleotides are written 5' to 3', each unit as a sugar letter and its base; * is a phosphorothioate linkage, no mark a phosphodiester; rarer units and linkages stand in square brackets, end groups in braces. Plain capitals give the bases only. e = 2'-O-(2-methoxyethyl) (MOE); [5mC] = 5-methylcytosine; d = 2'-deoxy (DNA)
tested on: mouse glucose-6-phosphatase translocase mRNA; assay: Antisense inhibition of mouse glucose-6-phosphatase translocase mRNA in primary mouse hepatocytes, 150 nM, LIPOFECTIN (Table 22); type: cell-based; conditions: real-time PCR
Description: Primary mouse hepatocytes were prepared from CD-1 mice purchased from Charles River Labs. Primary mouse hepatocytes were routinely cultured in Hepatocyte Attachment Media supplemented with 10% fetal bovine serum (Invitrogen Life Technologies, Carlsbad, Calif.), 250 nM dexamethasone, and 10 nM bovine insulin (Sigma-Aldrich, St. Louis, Mo.). Cells were seeded into 96-well plates (Falcon-Primaria #353872, BD Biosciences, Bedford, Mass.) at a density of approximately 4,000-6,000 cells/well for use in oligomeric compound transfection experiments.
When cells reached 65-75% confluency, they were treated with oligonucleotide. Oligonucleotide was mixed with LIPOFECTIN™ Invitrogen Life Technologies, Carlsbad, Calif.) in Opti-MEM™-1 reduced serum medium (Invitrogen Life Technologies, Carlsbad, Calif.) to achieve the desired concentration of oligonucleotide and a LIPOFECTIN™ concentration of 2.5 or 3 μg/mL per 100 nM oligonucleotide. This transfection mixture was incubated at room temperature for approximately 0.5 hours. For cells grown in 96-well plates, wells were washed once with 100 μL OPTI-MEM™-1 and then treated with 130 μL of the transfection mixture. Cells grown in 24-well plates or other standard tissue culture plates are treated similarly, using appropriate volumes of medium and oligonucleotide. Cells are treated and data are obtained in duplicate or triplicate. After approximately 4-7 hours of treatment at 37° C., the medium containing the transfection mixture was replaced with fresh culture medium. Cells were harvested 16-24 hours after oligonucleotide treatment.
Quantitation of glucose 6-phosphatase translocase mRNA levels was accomplished by real-time quantitative PCR using the ABI PRISM™ 7600, 7700, or 7900 Sequence Detection System (PE-Applied Biosystems, Foster City, Calif.) according to manufacturer's instructions.
Prior to quantitative PCR analysis, primer-probe sets specific to the target gene being measured were evaluated for their ability to be “multiplexed” with a GAPDH amplification reaction. After isolation the RNA is subjected to sequential reverse transcriptase (RT) reaction and real-time PCR, both of which are performed in the same well. RT and PCR reagents were obtained from Invitrogen Life Technologies (Carlsbad, Calif.). […] The RT reaction was carried out by incubation for 30 minutes at 48° C. Following a 10 minute incubation at 95° C. to activate the PLATINUM® Taq, 40 cycles of a two-step PCR protocol were carried out: 95° C. for 15 seconds (denaturation) followed by 60° C. for 1.5 minutes (annealing/extension).
Gene target quantities obtained by RT, real-time PCR were normalized using either the expression level of GAPDH, a gene whose expression is constant, or by quantifying total RNA using RiboGreen™ (Molecular Probes, Inc. Eugene, Oreg.). GAPDH expression was quantified by RT, real-time PCR, by being run simultaneously with the target, multiplexing, or separately. Total RNA was quantified using RiboGreen™ RNA quantification reagent (Molecular Probes, Inc. Eugene, Oreg.).
A series of oligomeric compounds was designed to target different regions of mouse glucose-6-phosphatase translocase, using published sequences cited in Table 1. All compounds in Table 22 are chimeric oligonucleotides (“gapmers”) 20 nucleotides in length, composed of a central “gap” region consisting of 10 2′-deoxynucleotides, which is flanked on both sides (5′ and 3′) by five-nucleotide “wings”. The wings are composed of 2′-O-(2-methoxyethyl) nucleotides, also known as 2′-MOE nucleotides. The internucleoside (backbone) linkages are phosphorothioate throughout the oligonucleotide. All cytidine residues are 5-methylcytidines. The compounds were analyzed for their effect on gene target mRNA levels by quantitative real-time PCR as described in other examples herein, using the following primer-probe set designed to hybridize to mouse glucose-6-phosphatase translocase: • forward primer: […]

Point of comparison: “145656 (antisense eT*eA*e[5mC]*eA*eG*dG*d[5mC]*dT*dG*dT*dA*dG*d[5mC]*d[5mC]*dT*e[5mC]*e[5mC]*eA*eA*eA) [compound 145656]”, “% Inhib of mouse glucose-6-phosphatase translocase mRNA levels” value 47%. Against it:
- 145647 (antisense e[5mC]*eT*e[5mC]*eT*eT*dG*dA*d[5mC]*dT*dG*d[5mC]*dT*d[5mC]*d[5mC]*dT*eG*e[5mC]*eT*eT*eG) [compound 145647] — higher, 52%
- 145648 (antisense e[5mC]*eT*eT*e[5mC]*eT*dG*dA*d[5mC]*d[5mC]*dA*d[5mC]*dA*dG*dA*d[5mC]*eT*e[5mC]*eT*eT*eG) [compound 145648] — lower, 26%
- 145649 (antisense eG*e[5mC]*e[5mC]*e[5mC]*eA*d[5mC]*dT*d[5mC]*d[5mC]*dA*dG*dT*dA*d[5mC]*dT*eT*e[5mC]*eT*eG*eA) [compound 145649] — higher, 61%
- 145650 (antisense eA*eA*eG*e[5mC]*eT*dG*dG*d[5mC]*d[5mC]*d[5mC]*dT*dG*d[5mC]*dT*dG*eG*e[5mC]*e[5mC]*e[5mC]*eA) [compound 145650] — higher, 54%
- 145651 (antisense eG*eT*eA*eG*eA*dA*dA*dA*dA*dG*d[5mC]*dT*dG*dG*d[5mC]*e[5mC]*e[5mC]*eT*eG*e[5mC]) [compound 145651] — lower, 31%
- 145653 (antisense eT*eT*eG*eG*eG*d[5mC]*dT*dG*d[5mC]*d[5mC]*dA*dT*dG*dG*dT*eA*eG*eA*eA*eA) [compound 145653] — lower, 42%
- 145654 (antisense eA*eG*eT*eG*e[5mC]*dG*dA*dT*dA*dG*dT*dA*dG*d[5mC]*d[5mC]*eG*eT*eA*eG*e[5mC]) [compound 145654] — the same, 47%
- 145655 (antisense eA*eA*e[5mC]*eA*eT*dG*dG*d[5mC]*d[5mC]*dG*d[5mC]*dA*dA*dA*dT*eA*eT*eG*eA*e[5mC]) [compound 145655] — lower, 29%
- 145658 (antisense eT*eG*eG*eT*e[5mC]*dT*dG*dA*d[5mC]*dA*dG*dA*dA*d[5mC]*d[5mC]*e[5mC]*e[5mC]*eG*e[5mC]*eT) [compound 145658] — lower, 36%
- 145659 (antisense e[5mC]*eG*e[5mC]*eT*e[5mC]*dA*dT*d[5mC]*dT*dG*dG*dT*d[5mC]*dT*dG*eA*e[5mC]*eA*eG*eA) [compound 145659] — lower, 15%
- 145660 (antisense eT*eG*eT*eG*eG*dA*dG*d[5mC]*dT*d[5mC]*d[5mC]*dA*dT*dG*dA*eG*eA*eA*eG*eA) [compound 145660] — lower, 40%
- 145661 (antisense eA*e[5mC]*e[5mC]*eA*eA*dG*dG*dA*dG*d[5mC]*dA*dG*d[5mC]*dA*dA*eA*eG*eG*e[5mC]*eT) [compound 145661] — lower, 25%
- 145663 (antisense eT*eT*eG*eA*e[5mC]*dA*dA*d[5mC]*dA*d[5mC]*dA*dG*d[5mC]*d[5mC]*d[5mC]*eA*e[5mC]*e[5mC]*eA*eA) [compound 145663] — higher, 48%
- 145665 (antisense e[5mC]*e[5mC]*eA*eG*e[5mC]*d[5mC]*dA*dG*dG*dT*dT*d[5mC]*dA*dT*dG*e[5mC]*eT*eG*eG*eT) [compound 145665] — lower, 22%
- 145666 (antisense eA*eA*eG*eA*eT*dA*dG*dG*dT*d[5mC]*d[5mC]*d[5mC]*dA*dA*dA*e[5mC]*eT*eT*e[5mC]*e[5mC]) [compound 145666] — lower, 28%
- 145669 (antisense e[5mC]*eA*e[5mC]*eA*eG*dT*dG*d[5mC]*d[5mC]*d[5mC]*d[5mC]*dA*dG*dA*d[5mC]*eA*eG*eG*eG*e[5mC]) [compound 145669] — lower, 9%
- 145672 (antisense eT*eG*eT*eG*eG*dA*dT*dG*dA*dG*d[5mC]*dA*dG*d[5mC]*dA*eG*eA*e[5mC]*eA*eG) [compound 145672] — lower, 8%
- 145674 (antisense e[5mC]*eA*eG*e[5mC]*eA*dG*dG*dT*dT*d[5mC]*dA*dT*dT*dG*dT*eG*eG*eA*eT*eG) [compound 145674] — lower, 43%
- 145675 (antisense eA*eA*e[5mC]*eA*eT*d[5mC]*dA*dG*d[5mC]*dA*dG*dG*dT*dT*d[5mC]*eA*eT*eT*eG*eT) [compound 145675] — lower, 23%
- 145676 (antisense GAGTCCAACATCAGCAGGTTCA; 2'-MOE gapmer, further chemistry not given here) [compound 145676] — higher, 51%
- 145677 (antisense e[5mC]*eT*eT*e[5mC]*eT*dT*dG*d[5mC]*d[5mC]*d[5mC]*dT*d[5mC]*dA*dG*dA*eG*eG*eG*e[5mC]*eA) [compound 145677] — lower, 9%
- 145678 (antisense eG*eA*eG*e[5mC]*e[5mC]*d[5mC]*dT*dT*d[5mC]*dT*dT*dG*d[5mC]*d[5mC]*d[5mC]*eT*e[5mC]*eA*eG*eA) [compound 145678] — higher, 60%
- 145679 (antisense eT*e[5mC]*eA*eA*eG*dG*dA*dG*d[5mC]*d[5mC]*d[5mC]*dT*dT*d[5mC]*dT*eT*eG*e[5mC]*e[5mC]*e[5mC]) [compound 145679] — lower, 17%
- 145680 (antisense e[5mC]*eT*e[5mC]*e[5mC]*eT*dT*d[5mC]*dA*dA*dG*dG*dA*dG*d[5mC]*d[5mC]*e[5mC]*eT*eT*e[5mC]*eT) [compound 145680] — lower, 0%
- 145681 (antisense e[5mC]*eT*e[5mC]*eT*e[5mC]*d[5mC]*dT*d[5mC]*d[5mC]*dT*dT*d[5mC]*dA*dA*dG*eG*eA*eG*e[5mC]*e[5mC]) [compound 145681] — lower, 36%
- 145682 (antisense eG*eG*eG*eT*eG*d[5mC]*dT*d[5mC]*dT*d[5mC]*d[5mC]*dT*d[5mC]*d[5mC]*dT*eT*e[5mC]*eA*eA*eG) [compound 145682] — lower, 31%
- 145683 (antisense e[5mC]*eA*eG*e[5mC]*eT*d[5mC]*d[5mC]*dT*dG*dT*dA*dG*dG*dG*dT*eG*e[5mC]*eT*e[5mC]*eT) [compound 145683] — lower, 0%
- 145684 (antisense eT*e[5mC]*eT*eT*eT*dA*d[5mC]*dT*d[5mC]*d[5mC]*dG*dA*dA*dG*dA*e[5mC]*e[5mC]*eA*e[5mC]*eA) [compound 145684] — lower, 43%
- 145687 (antisense e[5mC]*eT*e[5mC]*e[5mC]*eT*dG*dG*dA*dT*dA*dA*dG*dG*dA*dA*eG*eA*eA*e[5mC]*eT) [compound 145687] — lower, 12%
- 145688 (antisense eA*e[5mC]*eT*eG*e[5mC]*d[5mC]*d[5mC]*dT*d[5mC]*dT*d[5mC]*dT*d[5mC]*d[5mC]*dT*eG*eG*eA*eT*eA) [compound 145688] — lower, 25%
- 145689 (antisense e[5mC]*eA*eA*eG*eG*dG*d[5mC]*dG*dG*dA*d[5mC]*dT*dG*d[5mC]*d[5mC]*e[5mC]*eT*e[5mC]*eT*e[5mC]) [compound 145689] — lower, 34%
